Data published in the NIST ThermoML archive (doi:10.1016/j.jct.2012.06.030).

Assay: molar heat capacity at constant pressure; xn = mol fraction of the nth substance listed
Settings: 101 kPa, Liquid, Small sample (50 mg) DSC

CCCCCC[n+]1ccc2ccccc2c1.N#C[S-] [2-hexylisoquinolinium thiocyanate] + O
molar heat capacity at constant pressure [J/K/mol]
Settings | x1 = 0.2887 | x1 = 0.4013 | x1 = 0.5043 | x1 = 0.6059 | x1 = 0.6997 | x1 = 0.7864 | x1 = 0.8824 | x1 = 1
288.15 K | 189 | 220 | 265 | 298 | 333 | 347 | 390 | 433
293.15 K | 191 | 222 | 267 | 300 | 335 | 350 | 392 | 436
298.15 K | 192 | 224 | 269 | 302 | 337 | 352 | 395 | 439
303.15 K | 193 | 225 | 271 | 304 | 340 | 354 | 397 | 442
308.15 K | 195 | 226 | 272 | 306 | 341 | 357 | 400 | 445
313.15 K | 196 | 228 | 274 | 308 | 343 | 359 | 402 | 447
318.15 K | 197 | 229 | 276 | 309 | 346 | 361 | 404 | 450
323.15 K | 198 | 230 | 277 | 311 | 348 | 363 | 406 | 453
328.15 K | 198 | 232 | 278 | 312 | 350 | 365 | 409 | 456
333.15 K | 199 | 233 | 280 | 314 | 352 | 367 | 411 | 458
338.15 K | 200 | 234 | 281 | 316 | 353 | 369 | 413 | 461
343.15 K | 201 | 235 | 283 | 318 | 355 | 371 | 415 | 463
